Test results: US20130158080A1, “METHODS FOR TREATING HYPERTENSION IN BLACK PATIENTS” (Takeda Pharmaceuticals U.S.A., Inc., priority 2011, published 2013)

System: subjects with moderate to severe hypertension
Assay: Same study: safety and tolerability (adverse events, laboratory tests, discontinuations)
Parameters: species or system human
Conditions: in vivo
Excerpt: Randomization was stratified by subject's race: Black and non-Black. Before initiation of treatment, all subjects participated in a 2-week, single-blind, placebo Run-in Period (Days −14 to −1). […] Subjects taking previous antihypertensive agents were required to participate in a 3 week Washout Period (Days −21 to −1).
Safety variables included adverse events, vital signs (including orthostatic vital signs), 12-lead electrocardiogram (ECG) findings, and clinical laboratory test results.
Treatment-emergent adverse events (TEAEs) were tabulated, and vital signs and 12-lead ECG findings were summarized with descriptive statistics. All safety data were presented in the listings.

azilsartan medoxomil potassium plus chlorthalidone [TAK-491CLD]
Mean increases in serum creatinine, blood urea nitrogen, and serum uric acid: more common
